Earlier results on two compounds are cited in patent US6552014B2, “Methods of inhibiting platelet activation with selective serotonin reuptake inhibitors” (HeartDrug Research, L.L.C., priority 1999, dated 2003).

Where a name gives a salt, the structure may show the parent alone.

What all share (conditions): cited from earlier work
The test system of data set [1] is serotonin 5-HT2 receptor.
In data set [2] the test system is central 2 alpha-adrenergic autoreceptors, and heteroreceptors.
The test system of data set [3] is serotonin 5-HT3 receptors.

In the case of `CCc1nn(CCCN2CCN(c3cccc(Cl)c3)CC2)c(=O)n1CCOc1ccccc1` [Nefazodone, 2-[3-[4-(3-chlorophenyl)-1-piperazinyl]propyl]-5-ether-2,4-dihydro-4-(2-phenoxyethyl)-3H-1,2,4-triazol-3-one monohydrochloride], the “antagonism of serotonin 5-HT2 receptor, in words” value in data set [1] is recorded as “potent serotonin 5-HT2 receptor antagonist”.

Consider `CN1CCN2c3ncccc3Cc3ccccc3C2C1` (stereo not shown) [Mirtazapine], for which the “antagonism of central 2 alpha-adrenergic autoreceptors and heteroreceptors, in words” value in data set [2] is listed as “potent antagonist”. In data set [3], the “antagonism of serotonin 5-HT3 receptors, in words” value is listed as “antagonist”. In data set [1], the “antagonism of serotonin 5-HT2 receptor, in words” value is listed as “antagonist”.
